Read-outs that look alike come from different tables or passages of the source.
Key:
Cathepsins B, K, L, S, V = assay: Cathepsin IC50, range over B, K, L, S, V; assay type: biochemical; settings: for fold more potent against USP30 than against the cathepsins, minimum: lowest of cathepsins B, S and V; for fold more potent against USP30 than against the cathepsins, minimum / Selectivity preference for USP30 v cathepsins: K, L; for Selectivity preference for USP30 v cathepsins: range over cathepsins B, S; for IC50: range over the five cathepsins
Cathepsin S = Cathepsin S (Homo sapiens, UniProt P25774); assay: Cathepsin IC50, cathepsin S; assay type: biochemical
Cathepsin S, sequence (P25774 115-331, species assumed): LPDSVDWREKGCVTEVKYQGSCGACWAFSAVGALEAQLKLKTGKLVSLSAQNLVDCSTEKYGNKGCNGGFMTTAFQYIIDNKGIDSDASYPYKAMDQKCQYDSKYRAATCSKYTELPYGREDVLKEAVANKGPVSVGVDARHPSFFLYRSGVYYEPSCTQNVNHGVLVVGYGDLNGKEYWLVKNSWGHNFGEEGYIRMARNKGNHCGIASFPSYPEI

[1] = tested on: USP2, USP10, USP16, USP21, USP22, USP25, USP28, USP35, USP46; assay: DUB biochemical IC50 assays, nine DUBs; settings: for fold more potent against USP30 than against the nine DUBs, minimum: lowest of USP2, USP10, USP16, USP21, USP22, USP25, USP28, USP35, USP46; for DUB selectivity preference for USP30 v 9 DUBs / IC50: range over the nine DUBs; for IC50: Ref. Ex. C excl. USP22, Ref. Ex. D excl. USP2, 46
Cathepsin B = Cathepsin B (Homo sapiens, UniProt P07858); assay: Cathepsin IC50, cathepsin B; assay type: biochemical
Cathepsin L = Cathepsin L (Homo sapiens, UniProt P07711); assay: Cathepsin IC50, cathepsin L; assay type: biochemical
Cathepsin L, sequence (P07711 114-333, species assumed): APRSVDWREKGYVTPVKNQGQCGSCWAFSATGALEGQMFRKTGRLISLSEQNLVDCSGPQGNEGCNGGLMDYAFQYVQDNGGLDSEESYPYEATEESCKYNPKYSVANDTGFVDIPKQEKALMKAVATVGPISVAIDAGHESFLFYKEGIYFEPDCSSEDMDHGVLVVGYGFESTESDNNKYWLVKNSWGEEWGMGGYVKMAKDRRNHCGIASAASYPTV

Cathepsin V = Cathepsin V (Homo sapiens, UniProt O60911); assay: Cathepsin IC50, cathepsin V; assay type: biochemical
Cathepsin V, sequence (O60911 114-334, species assumed): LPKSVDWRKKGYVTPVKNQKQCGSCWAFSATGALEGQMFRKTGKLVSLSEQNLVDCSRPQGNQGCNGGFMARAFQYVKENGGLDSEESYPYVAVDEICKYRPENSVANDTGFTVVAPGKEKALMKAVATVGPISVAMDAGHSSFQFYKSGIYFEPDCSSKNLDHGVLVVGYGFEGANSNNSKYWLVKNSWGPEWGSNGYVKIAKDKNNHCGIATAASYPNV

Cathepsin K = target: T1, Cathepsin K (Homo sapiens, UniProt P43235); assay: Cathepsin IC50, cathepsin K; assay type: biochemical
T1 sequence (P43235 115-329): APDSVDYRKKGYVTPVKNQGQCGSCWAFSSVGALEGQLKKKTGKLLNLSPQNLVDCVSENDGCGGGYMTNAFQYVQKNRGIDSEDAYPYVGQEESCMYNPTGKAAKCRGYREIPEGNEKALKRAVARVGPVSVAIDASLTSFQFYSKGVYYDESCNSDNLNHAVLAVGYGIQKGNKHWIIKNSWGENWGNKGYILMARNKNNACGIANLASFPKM

USP30 = target: T2, USP30 (Homo sapiens, UniProt Q70CQ3); assay: USP30 biochemical IC50 assay (fluorescence polarisation)
T2 construct: purchased Boston Biochem E582
T2 sequence (Q70CQ3 57-517 limits assumed): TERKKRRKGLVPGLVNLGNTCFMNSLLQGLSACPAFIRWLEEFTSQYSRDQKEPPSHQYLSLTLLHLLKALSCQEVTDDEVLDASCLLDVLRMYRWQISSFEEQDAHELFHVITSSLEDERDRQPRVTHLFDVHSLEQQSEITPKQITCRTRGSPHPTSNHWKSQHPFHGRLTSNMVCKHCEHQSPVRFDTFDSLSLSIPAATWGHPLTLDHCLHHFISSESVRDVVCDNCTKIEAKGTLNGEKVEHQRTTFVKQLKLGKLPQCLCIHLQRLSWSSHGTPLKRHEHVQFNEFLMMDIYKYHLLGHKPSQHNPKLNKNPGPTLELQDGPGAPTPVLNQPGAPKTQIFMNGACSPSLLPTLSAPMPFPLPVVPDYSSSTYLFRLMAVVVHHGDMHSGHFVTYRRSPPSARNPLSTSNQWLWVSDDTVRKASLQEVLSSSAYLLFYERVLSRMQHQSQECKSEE
Description: Dilution plates were prepared at 21 times the final concentration (2100 μM for a final concentration of 100 μM) in 50% DMSO in a 96-well polypropylene V-bottom plate (Greiner #651201). A typical 8-point dilution series would be 100, 30, 10, 3, 1, 0.3, 0.1, 0.03 μM final. Reactions were performed in duplicate in black 384 well plates (small volume, Greiner 784076) in a final reaction volume of 21 μl. Either […] of 50% DMSO or diluted compound was added to the plate. USP30 (Boston Biochem #E582) was diluted in reaction buffer (40 mM Tris, pH 7.5, 0.005% Tween 20, 0.5 mg/ml BSA, 5 mM beta-mercaptoethanol) to achieve a final assay concentration of 4 nM, and 10 μl of diluted USP30 was added to the compound. Enzyme and compound were incubated for 30 min at room temp. Reactions were initiated by the addition of 50 nM of TAMRA labelled peptide linked to ubiquitin via an iso-peptide bond as fluorescence polarisation substrate. Reactions were read immediately after addition of substrate and following a 2-hour incubation at room temperature. Readings were performed on a Pherastar Plus (BMG Labtech). λ Excitation 540 nm; λ Emission 590 nm.

UCHL1 = target: T3, UCHL1 (Homo sapiens, UniProt P09936); assay: DUB biochemical IC50 assay, UCHL1
T3 sequence (P09936 1-223): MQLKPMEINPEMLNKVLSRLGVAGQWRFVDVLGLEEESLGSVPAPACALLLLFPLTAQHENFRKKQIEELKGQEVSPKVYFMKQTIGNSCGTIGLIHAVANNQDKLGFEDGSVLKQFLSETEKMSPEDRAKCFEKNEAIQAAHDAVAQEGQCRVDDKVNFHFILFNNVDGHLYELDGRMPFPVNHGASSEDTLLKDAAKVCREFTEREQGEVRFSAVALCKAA

Endogenous USP30 = target: T4, Endogenous USP30 (Homo sapiens, UniProt Q70CQ3); assay: USP30 endogenous cellular target engagement western blot assay (Cell TE WB); assay type: cell-based; settings: Hela cells stably overexpressing YFP-Parkin, 1 hour
T4 construct: USP30 endogenous cellular target engagement western blot (WB) assay; endogenous in cells; host or cells: HeLa stably overexpressing YFP-Parkin
T4 sequence (Q70CQ3 1-517): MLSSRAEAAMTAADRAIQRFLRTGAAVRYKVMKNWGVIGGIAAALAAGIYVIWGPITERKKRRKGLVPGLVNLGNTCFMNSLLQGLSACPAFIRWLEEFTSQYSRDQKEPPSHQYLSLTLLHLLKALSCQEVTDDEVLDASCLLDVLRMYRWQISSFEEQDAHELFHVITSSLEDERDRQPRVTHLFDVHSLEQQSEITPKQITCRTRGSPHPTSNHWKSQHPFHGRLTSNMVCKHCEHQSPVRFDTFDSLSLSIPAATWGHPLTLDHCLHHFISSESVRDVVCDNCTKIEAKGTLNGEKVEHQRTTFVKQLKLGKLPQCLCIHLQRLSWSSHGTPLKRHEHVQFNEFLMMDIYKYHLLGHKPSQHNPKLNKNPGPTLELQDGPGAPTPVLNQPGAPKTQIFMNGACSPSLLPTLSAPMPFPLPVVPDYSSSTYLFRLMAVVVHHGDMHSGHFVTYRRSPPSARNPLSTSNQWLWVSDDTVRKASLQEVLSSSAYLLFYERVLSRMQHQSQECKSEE
Description: Hela cells stably overexpressing YFP-Parkin were seeded into 6 well dishes. Once adhered, cells were treated with appropriate concentrations of test compounds or vehicle control for 1 hour at 37° C., 5% CO2. Whole cell lysates were prepared by scraping the cells into cold PBS, centrifuging and lysing in lysis buffer (50 mM Tris-base, pH 7.5, 50 mM NaCl, 1% NP-40/Igepal CA-630, 2 mM MgCl2, 10% Glycerol, 5 mM beta-mercaptoethanol, cOmplete mini tablets EDTA free (Roche), PhosStop tablets (Roche)) for 10 mins. The equivalent of 20 μg of protein from the cleared cell lysate was incubated with a final conc of 2.5 μM HA-Ahx-Ahx-Ub-VME probe at room temperature. The reaction was stopped by addition of 5×SDS sample loading buffer and proteins separated by SDS PAGE and western blotting. USP30 was detected using an anti-USP30 Sheep S746D antibody (MRC PPU Reagents and Services) and a rabbit anti sheep secondary IgG (H+L) horseradish peroxidase conjugated (Thermo #31480) and visualised using ECL reagent (GE #RPN2109) on a GE LAS4000 imager. Target engagement was measured by quantitation of the bands corresponding to USP30 and USP30 bound to the Ub-VME probe and expression of this proportion compared to vehicle treated control.
Cell TE WB: USP30 endogenous cellular target engagement western blot (WB) assay. Assays the activity of compounds against USP30 in cells using an irreversible activity probe to monitor USP30 activity.

[2] = Reference Examples, read-out: USP30 IC50
[3] = USP30 biochemical IC50 assay, exemplary compounds, read-out: IC50

Row | Compound | IC50 (Cathepsins B, K, L, S, V) [µM] | IC50 (Cathepsin S) [µM] | IC50 [1] [µM] | IC50 (Cathepsin B) [µM] | IC50 (Cathepsin L) [µM] | IC50 (Cathepsin V) [µM] | IC50 (Cathepsin K) [µM] | IC50 (USP30; [2]) [µM] | DUB selectivity preference for USP30 v UCHL1 (UCHL1) | IC50 (UCHL1) [µM] | EC50 (Endogenous USP30) [nM] | IC50 (USP30; [3]) [µM] | fold more potent against USP30 than UCHL1 (UCHL1) [fold] | IC50 (USP30; read-out: DUB IC50 (μM) USP30) [µM] | fold more potent against USP30 than against the cathepsins, minimum (Cathepsins B, K, L, S, V) [fold] | Selectivity preference for USP30 v cathepsins (Cathepsins B, K, L, S, V) | fold more potent against USP30 than against the nine DUBs, minimum [1] [fold] | DUB selectivity preference for USP30 v 9 DUBs [1]
1 | N#CN1CC[C@H](C(=O)Nc2ncc(-c3ccccc3)s2)C1 [E, reference compound] | 1 to 5.3 | – | – | 5.3 | 1 | – | 2.7 | 0.31 | – | 0.25 | – | – | 0.8 | 0.31 | 3.2 | 3.2-17 | – | –
2 | N#CN1CCC(C(=O)Nc2nnc(-c3ccccc3)s2)C1 (stereo not shown) [F, reference compound] | 0.24 to 9.8 | 2.1 | – | 9.8 | 0.24 | 0.82 | 0.86 | 0.7 | 4.6 | 3.2 | – | – | 4.6 | – | 0.34 | 0.34-14 | – | –
3 | N#Cc1cccc(-c2ccn3c(C(=O)N[C@@H]4CCN(C#N)C4)cnc3c2)c1 [D] | 2.3 to 6.9 | 6.9 | 0.19 to 5.1 | – | 2.3 | 3 | – | 0.041 | – | – | – | – | – | – | 56 | 56-168 | 4.6 | 4.6-124
4 | C[C@H]1CN(C#N)C[C@@H]1NC(=O)c1cnc(-c2ccccc2)s1 [C, reference compound] | 1.5 to 5.9 | 5.9 | 0.025 to 8.9 | 4.8 | 1.5 | 4 | 2.4 | 0.026 | – | – | – | – | – | – | 58 | 58-227 | 0.96 | 0.96-342
5 | COc1cccc(-c2cc(C(=O)N[C@@H]3CCN(C#N)C3)on2)c1 [A, reference compound] | 0.79 to 8.8 | 8.8 | 0.19 to 9.9 | 4.5 | 2.8 | 5.8 | 0.79 | 0.07 | – | – | – | – | – | – | – | 11-126 | 2.7 | 2.7-141

Continued, in another order:

Row | IC50 (Cathepsins B, K, L, S, V) [µM] | IC50 (Cathepsin S) [µM] | IC50 [1] [µM] | IC50 (Cathepsin B) [µM] | IC50 (Cathepsin L) [µM] | IC50 (Cathepsin V) [µM] | IC50 (Cathepsin K) [µM] | IC50 (USP30; [2]) [µM] | DUB selectivity preference for USP30 v UCHL1 (UCHL1) | IC50 (UCHL1) [µM] | EC50 (Endogenous USP30) [nM] | IC50 (USP30; [3]) [µM] | fold more potent against USP30 than UCHL1 (UCHL1) [fold] | IC50 (USP30; read-out: DUB IC50 (μM) USP30) [µM] | Compound | fold more potent against USP30 than against the cathepsins, minimum (Cathepsins B, K, L, S, V) [fold] | Selectivity preference for USP30 v cathepsins (Cathepsins B, K, L, S, V) | fold more potent against USP30 than against the nine DUBs, minimum [1] [fold] | DUB selectivity preference for USP30 v 9 DUBs [1]
6 | 0.79 to 4.2 | 2.3 | 0.35 to 10.2 | 2.9 | 0.79 | 4.2 | 1.1 | 0.044 | – | – | – | – | – | – | N#CN1CCC(NC(=O)c2cc(-c3cccc(Cl)c3)no2)C1 (stereo not shown) [B, reference compound] | 18 | 18-95 | 8 | 8-232
7 | 24.5 to 300 | > 300 | ≥ 12.4 | > 300 | > 300 | 162 | 24.5 | – | 8800 | > 300 | 72 | 0.034 | – | – | COc1ccc(C#N)cc1-c1nnc(C(=O)N[C@@H]2C[C@@H](C)N(C#N)C2)o1 [Example 5, 5-(5-Cyano-2-methoxyphenyl)-N-((3R,5R)-1-cyano-5-methylpyrrolidin-3-yl)-1,3,4-oxadiazole-2-carboxamide] | – | 720-8800 | – | 360-8800
8 | – | – | – | – | – | – | – | 4.4 | – | 6.8 | – | – | 1.5 | 4.4 | CC1CC(C(=O)Nc2ncc(-c3ccccc3)s2)CN1C#N (stereo not shown) [G, reference compound] | – | – | – | –
9 | 32.8 to 300 | > 300 | ≥ 6.9 | > 300 | 32.8 | > 300 | 113 | – | 8100 | > 300 | 89 | 0.037 | – | – | COC[C@@H]1C[C@@H](NC(=O)c2nnc(-c3cccc(C#N)c3)o2)CN1C#N [Example 2, N-((3R,5S)-1-Cyano-5-(methoxymethyl)pyrrolidin-3-yl)-5-(3-cyanophenyl)-1,3,4-oxadiazole-2-carboxamide] | – | 880-8100 | – | 186-8100

— patent US20220315572A1, “SUBSTITUTED CYANOPYRROLIDINES WITH ACTIVITY AS USP30 INHIBITORS” (MISSION THERAPEUTICS LIMITED, priority 2019, published 2022)
